Data from ChEMBL document CHEMBL1201862, “PubChem BioAssay data set” (2004).
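Following 48 hours of exposure in 96-well plates, responses at five concentrations were used to interpolate endpoints linearly. GI50 marks 50% less growth.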 Calls of active or inactive are those of the source. Rule as the data show it: active = GI50 up to about 1.1 µM and inactive = higher.

Assays:
Assay in all cases: inhibition of tumour cell growth, NCI panel, 48 h
A549 = tested on: A549
EKVX = tested on: EKVX
786-0 = tested on: 786-0
NCI-H460 = tested on: NCI-H460
SR = tested on: SR
Hs-578T = tested on: Hs-578T
HCT-15 = tested on: HCT-15
SF-539 = tested on: SF-539
SK-OV-3 = tested on: SK-OV-3
RXF 393 = tested on: RXF 393
SNB-19 = tested on: SNB-19
OVCAR-8 = tested on: OVCAR-8
ACHN = tested on: ACHN
SW-620 = tested on: SW-620
MDA-MB-435 = tested on: MDA-MB-435
OVCAR-4 = tested on: OVCAR-4
PC-3 = tested on: PC-3
HT-29 = tested on: HT-29
K562 = tested on: K562
OVCAR-3 = tested on: OVCAR-3
DU-145 = tested on: DU-145
OVCAR-5 = tested on: OVCAR-5
NCI-H23 = tested on: NCI-H23
Malme-3M = tested on: Malme-3M
COLO 205 = tested on: COLO 205
CCRF-CEM = tested on: CCRF-CEM
IGROV-1 = tested on: IGROV-1
SF-268 = tested on: SF-268
SNB-75 = tested on: SNB-75
SK-MEL-2 = tested on: SK-MEL-2
SK-MEL-28 = tested on: SK-MEL-28
HCT-116 = tested on: HCT-116
MDA-N = tested on: MDA-N
NCI-H226 = tested on: NCI-H226
KM12 = tested on: KM12
HOP-62 = tested on: HOP-62
TK-10 = tested on: TK-10
M14 = tested on: M14
MDA-MB-231 = tested on: MDA-MB-231
SK-MEL-5 = tested on: SK-MEL-5
UACC-257 = tested on: UACC-257
HL-60 = tested on: HL-60
NCI-H522 = tested on: NCI-H522
U-251 = tested on: U-251
HCC 2998 = tested on: HCC 2998
UACC-62 = tested on: UACC-62
SN12C = tested on: SN12C
CAKI-1 = tested on: CAKI-1
UO-31 = tested on: UO-31
RPMI-8226 = tested on: RPMI-8226
A498 = tested on: A498
MOLT-4 = tested on: MOLT-4
LOX IMVI = tested on: LOX IMVI
NCI/ADR-RES = tested on: NCI/ADR-RES
SF-295 = tested on: SF-295
MCF7 = tested on: MCF7
T47D = tested on: T47D
BT-549 = tested on: BT-549
HOP-92 = tested on: HOP-92

CN1Cc2c(ccc3c2OCO3)[C@@H]2[C@H](O)Cc3cc4c(cc3[C@@H]21)OCO4
GI50 (A549): 4.15 µM (inactive) | GI50 (EKVX): 4.51 µM (inactive) | GI50 (786-0): 4.09 µM (inactive) | GI50 (NCI-H460): 3.01 µM (inactive) | GI50 (SR): 4.15 µM (inactive) | GI50 (Hs-578T): 3.59 µM (inactive) | GI50 (HCT-15): 2.02 µM | GI50 (SF-539): 2.07 µM (inactive) | GI50 (SK-OV-3): 3.16 µM (inactive) | GI50 (RXF 393): 2.72 µM (inactive) | GI50 (SNB-19): 3.41 µM (inactive) | GI50 (OVCAR-8): 3.62 µM (inactive) | GI50 (ACHN): 11 µM (inactive) | GI50 (SW-620): 3.62 µM (inactive) | GI50 (MDA-MB-435): 0.52 µM (active) | GI50 (OVCAR-4): > 86.7 µM (inactive) | GI50 (PC-3): 2.66 µM (inactive) | GI50 (HT-29): 2.14 µM (inactive) | GI50 (K562): 2.61 µM (inactive) | GI50 (OVCAR-3): 2.2 µM (inactive) | GI50 (DU-145): 4.4 µM (inactive) | GI50 (OVCAR-5): 12.1 µM (inactive) | GI50 (NCI-H23): 3.31 µM (inactive) | GI50 (Malme-3M): 4.63 µM (inactive) | GI50 (COLO 205): 2.2 µM (inactive) | GI50 (CCRF-CEM): 2.82 µM (inactive) | GI50 (IGROV-1): 3.87 µM (inactive) | GI50 (SF-268): 4.82 µM (inactive) | GI50 (SNB-75): 2.62 µM (inactive) | GI50 (SK-MEL-2): 2.68 µM (inactive) | GI50 (SK-MEL-28): 4.98 µM (inactive) | GI50 (HCT-116): 3.4 µM (inactive) | GI50 (MDA-N): 0.435 µM (active) | GI50 (NCI-H226): 3.01 µM (inactive) | GI50 (KM12): 2.48 µM (inactive) | GI50 (HOP-62): 3.09 µM (inactive) | GI50 (TK-10): 5.46 µM (inactive) | GI50 (M14): 2.2 µM (inactive) | GI50 (MDA-MB-231): 3.29 µM (inactive) | GI50 (SK-MEL-5): 1.41 µM (inactive) | GI50 (UACC-257): 5.26 µM (inactive) | GI50 (HL-60): 1.46 µM (inactive) | GI50 (NCI-H522): 2.92 µM (inactive) | GI50 (U-251): 3.19 µM (inactive) | GI50 (HCC 2998): 2.11 µM (inactive) | GI50 (UACC-62): 3.05 µM (inactive) | GI50 (SN12C): 5.06 µM (inactive) | GI50 (CAKI-1): 4.89 µM (inactive) | GI50 (UO-31): 6.28 µM (inactive) | GI50 (RPMI-8226): 4.39 µM (inactive) | GI50 (A498): 2.17 µM (inactive) | GI50 (MOLT-4): 3.08 µM (inactive) | GI50 (LOX IMVI): 4.51 µM (inactive) | GI50 (NCI/ADR-RES): 2.35 µM (inactive) | GI50 (SF-295): 2.14 µM (inactive) | GI50 (MCF7): 2.11 µM (inactive) | GI50 (T47D): 9.23 µM (inactive) | GI50 (BT-549): 2.55 µM (inactive) | GI50 (HOP-92): 46.5 µM (inactive)

COC1(CC[C@@H](C)COC2OC(CO)C(O)C(O)C2O)O[C@H]2C[C@H]3[C@@H]4CC=C5C[C@@H](OC6OC(CO)C(O)C(OC7OC(CO)C(O)C(O)C7O)C6OC6OC(C)C(O)C(O)C6O)CC[C@]5(C)[C@H]4CC[C@]3(C)[C@H]2[C@@H]1C (stereo partly drawn)
GI50 (A549): 2.68 µM (inactive) | GI50 (EKVX): 15.9 µM (inactive) | GI50 (786-0): 2.75 µM (inactive) | GI50 (NCI-H460): 3.4 µM (inactive) | GI50 (SR): 23.5 µM (inactive) | GI50 (Hs-578T): 8.51 µM (inactive) | GI50 (HCT-15): 3.28 µM | GI50 (SF-539): 2.74 µM (inactive) | GI50 (SK-OV-3): 4.01 µM (inactive) | GI50 (RXF 393): 5.71 µM (inactive) | GI50 (SNB-19): 6.37 µM (inactive) | GI50 (OVCAR-8): 8.77 µM (inactive) | GI50 (ACHN): 14.5 µM (inactive) | GI50 (SW-620): 2.6 µM (inactive) | GI50 (MDA-MB-435): 2.77 µM (inactive) | GI50 (OVCAR-4): 9.91 µM (inactive) | GI50 (PC-3): 6.82 µM (inactive) | GI50 (HT-29): 4.67 µM (inactive) | GI50 (K562): > 20.6 µM (inactive) | GI50 (OVCAR-3): 16.8 µM (inactive) | GI50 (DU-145): 3.97 µM (inactive) | GI50 (OVCAR-5): 7.67 µM (inactive) | GI50 (NCI-H23): 14.5 µM (inactive) | GI50 (Malme-3M): 3.11 µM (inactive) | GI50 (COLO 205): 9.04 µM (inactive) | GI50 (CCRF-CEM): 28.6 µM (inactive) | GI50 (IGROV-1): 7.24 µM (inactive) | GI50 (SF-268): 10.2 µM (inactive) | GI50 (SNB-75): 3.33 µM (inactive) | GI50 (SK-MEL-2): 13.7 µM (inactive) | GI50 (SK-MEL-28): 5.45 µM (inactive) | GI50 (HCT-116): 6.64 µM (inactive) | GI50 (MDA-N): 8.63 µM (inactive) | GI50 (NCI-H226): 9.95 µM (inactive) | GI50 (KM12): 2.08 µM (inactive) | GI50 (HOP-62): 10.4 µM (inactive) | GI50 (TK-10): 19.3 µM (inactive) | GI50 (M14): 2.37 µM (inactive) | GI50 (MDA-MB-231): 0.885 µM (active) | GI50 (SK-MEL-5): 9.84 µM (inactive) | GI50 (UACC-257): 11 µM (inactive) | GI50 (HL-60): 6.19 µM (inactive) | GI50 (NCI-H522): 4.62 µM (inactive) | GI50 (U-251): 1.89 µM (inactive) | GI50 (HCC 2998): 3.56 µM (inactive) | GI50 (UACC-62): 3.19 µM (inactive) | GI50 (SN12C): 10.2 µM (inactive) | GI50 (CAKI-1): 6.35 µM (inactive) | GI50 (UO-31): 4.5 µM (inactive) | GI50 (RPMI-8226): 32.2 µM (inactive) | GI50 (A498): 12.9 µM (inactive) | GI50 (MOLT-4): 16 µM (inactive) | GI50 (LOX IMVI): 2.8 µM (inactive) | GI50 (NCI/ADR-RES): 16 µM (inactive) | GI50 (SF-295): 3.48 µM (inactive) | GI50 (MCF7): 16 µM (inactive) | GI50 (T47D): 4.67 µM (inactive) | GI50 (BT-549): 16.5 µM (inactive) | GI50 (HOP-92): 2.46 µM (inactive)
